In patent US6166000A, “Methods for preparation and use of 1α,24(S)-Dihydroxy vitamin . D.sub2” (priority 1995, dated 2000):

Assays:
[1] = test system: Human keratinocytes; experiment: Epidermal cell differentiation and proliferation testing; format: cell-based; conditions: 0.05 to 5 μg/ml
Experimental: Human keratinocytes are cultured according to known modifications of the system originally described by Rheinwald and Green (Cell, vol. 6, p. 331 (1975)). The 1α,24(S)-dihydroxy vitamin D2, dissolved in ethanol, is added to cells to yield a variety of concentrations between 0.05 and 5 μg/ml with the ethanol concentration not to exceed 0.5% v/v. Control cultures are supplemented with ethanol at a final concentration of 0.5% v/v.
Differentiation and proliferation of epidermal cells in culture is examined by:
1. quantitation of cornified envelopes;
2. quantitation of cell density of cells attached to disks;
3. monitoring transglutaminase activity; or
4. monitoring DNA synthesis by incorporation of ^3 H-thymidine.

[2] = test system: human cancer cell lines BCA-1 or ZR-75-1 (breast) and COL-1 (colon); experiment: Antiproliferative activity in human cancer cell lines (thymidine incorporation); format: cell-based; conditions: dose-response
Experimental: Dose-response studies are conducted with 1α,24(S)-(OH)2 D2 in a battery of human cancer cell lines. These cell lines include, but are not limited to, the following: BCA-1 or ZR-75-1 (breast) and COL-1 (colon), as described by Shieh, H. L. et al. Chem. Biol. Interact., vol. 81, pp. 35-55 (1982). In this study, appropriate solvents are used as negative controls.

[3] = test system: postmenopausal osteoporotic women; experiment: Dose ranging study in postmenopausal osteoporotic women; format: in vivo, human; conditions: oral 0.5 to 8.0 μg/day, escalated weekly over five weeks
Experimental: Twenty postmenopausal osteoporotic women are enrolled in an open label study.
On admission to the study, all patients receive instruction on selecting a daily diet containing 400 to 600 mg of calcium. Compliance to this diet is verified at weekly intervals by 24-hour food records and by interviews with each patient.
All patients complete a one-week baseline period, a five-week treatment period, and a one-week post-treatment observation period. During the treatment period, patients orally self-administer 1α,24(S)-dihydroxyvitamin D2 at an initial dose of 0.5 μg/day for the first week, and at successively higher doses of 1.0, 2.0, 4.0, and 8.0 μg/day in each of the following four weeks. All doses are administered before breakfast.
Blood and urine chemistries are monitored on a weekly basis throughout the study. Key blood chemistries include fasting serum levels of-calcium, phosphorus, osteocalcin, creatinine, and blood urea nitrogen. Key urine chemistries include 24-hour excretion of calcium, phosphorus, and creatinine.

[4] = target: T1, vitamin D receptor (VDR) (Homo sapiens, UniProt P11473); experiment: Vitamin D-dependent transcriptional activation: growth hormone production in COS-1 cells co-transfected with VDR plasmid and VDRE-GH plasmid; format: cell-based; conditions: in words
T1 sequence (P11473 1-427): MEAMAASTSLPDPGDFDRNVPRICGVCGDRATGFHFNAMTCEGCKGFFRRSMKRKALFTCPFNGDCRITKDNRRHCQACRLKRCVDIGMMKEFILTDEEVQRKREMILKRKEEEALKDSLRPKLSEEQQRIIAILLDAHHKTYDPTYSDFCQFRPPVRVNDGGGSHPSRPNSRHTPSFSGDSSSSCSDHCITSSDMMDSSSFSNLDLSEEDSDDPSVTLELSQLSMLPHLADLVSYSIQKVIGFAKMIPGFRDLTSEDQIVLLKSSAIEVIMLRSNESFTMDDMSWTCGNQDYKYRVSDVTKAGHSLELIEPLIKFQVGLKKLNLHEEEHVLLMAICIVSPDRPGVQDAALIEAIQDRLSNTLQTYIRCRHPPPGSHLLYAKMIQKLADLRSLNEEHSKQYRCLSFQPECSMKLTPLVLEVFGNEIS
Experimental: The biological activity in vitro of chemically synthesized 1α,24(S)-(OH)2 D2 and 1α,24(R)-(OH)2 D2 was measured using a vitamin D-dependent transcriptional activation model system in which a vitamin D receptor (VDR)-expressing plasmid pSG5-hVDR1/3and a plasmid p(CT4)^4 TKGH containing a Growth Hormone (GH)-gene, under the control of a vitamin D-responsive element (VDRE) were co-transfected into Green monkey kidney, COS-1 cells. DNA's for these two vectors were supplied by Dr. Mark Haussler, Department of Biochemistry, University of Arizona, Tucson, Ariz.
Tranfected cells were incubated with vitamin D metabolites and growth hormone production was measured.

[5] = target: T2, vitamin D serum binding protein (DBP) (Rattus norvegicus, UniProt P04276); experiment: Affinity for vitamin D serum binding protein using vitamin D deficient rat serum; conditions: in words
T2 sequence (P04276 17-476): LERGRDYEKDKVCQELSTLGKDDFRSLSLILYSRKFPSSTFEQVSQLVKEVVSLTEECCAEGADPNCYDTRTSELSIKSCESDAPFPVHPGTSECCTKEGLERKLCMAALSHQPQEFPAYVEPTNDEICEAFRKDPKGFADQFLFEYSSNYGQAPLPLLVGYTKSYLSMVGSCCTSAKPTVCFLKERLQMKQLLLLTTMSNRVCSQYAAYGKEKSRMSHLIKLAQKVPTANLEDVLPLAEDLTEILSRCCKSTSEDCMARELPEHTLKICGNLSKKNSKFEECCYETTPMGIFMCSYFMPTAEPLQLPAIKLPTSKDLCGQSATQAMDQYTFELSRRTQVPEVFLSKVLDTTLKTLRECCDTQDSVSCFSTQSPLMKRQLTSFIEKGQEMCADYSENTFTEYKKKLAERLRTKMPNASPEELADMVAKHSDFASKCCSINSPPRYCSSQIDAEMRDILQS
Excerpt: In addition, the weak binding by the DBP was indicative of more rapid clearance, allowing for low toxicity.

[6] = test system: HL-60 promyelocytes; experiment: HL-60 cell differentiation assay; format: cell-based; conditions: dose-response; acid esterase, NBT reduction, thymidine incorporation
Experimental: A dose-response study is conducted with 1α,24(S)-(OH)2 D2 in the HL-60 cell differentiation assay as described by DeLuca and Ostrom (DeLuca, H. F. and Ostrem, V. K., Prog. Clin. Biol. Res., vol. 259, pp. 41-55 (1988)). In this study, 1α,25-(OH)2 D3 is used as a positive control and appropriate solvents are used as negative controls. The following variables are evaluated: nonspecific acid esterase activity, nitroblue tetrazolium (NBT) reduction, and thymidine incorporation.

[7] = test system: healthy postmenopausal women; experiment: Prophylaxis of postmenopausal bone loss; format: in vivo, human; conditions: at or above 1.0 μg/day, 24 to 36 months
Experimental: A clinical study is conducted with healthy postmenopausal women having ages between 55 and 60 years. The study involves up to 80 patients randomly divided into two treatment groups, and continues for 24 to 36 months. One treatment group receives a constant dosage of 1α,24(S)-dihydroxy vitamin D2 (u.i.d.; a dose level at or above 1.0 μg/day) and the other receives a matching placebo. The study is conducted as indicated in Example 2 above.

C=C1/C(=C\C=C2/CCC[C@]3(C)[C@@H]([C@H](C)/C=C/[C@@](C)(O)C(C)C)CC[C@@H]23)C[C@@H](O)C[C@@H]1O [1α,24(S)-(OH)2 D2, 1α,24(S)-dihydroxy Vitamin D2]
DNA synthesis (3H-thymidine incorporation) vs control cultures [1]: lower DNA synthesis
cell density of attached cells vs control cultures [1]: fewer attached cells
cornified envelopes vs control cultures [1]: more cornified envelopes
transglutaminase activity vs control cultures [1]: higher transglutaminase activity
antiproliferative activity (inhibition of thymidine incorporation) [2]: potent (and reversible) antiproliferative activity
routinely monitored serum parameters [3]: no effect
serum osteocalcin levels [3]: increases
urinary excretion of hydroxyproline [3]: nor does it increase
activity in the transcriptional activation system compared with 1α,24(R)-(OH)2 D2 [4]: significantly more activity
binding affinity for the vitamin D serum binding protein [5]: more weakly than does 1,25-(OH)2 D3
differentiation of HL-60 promyelocytes to monocytes [6]: potent activity in promoting differentiation
monitored safety parameters, long-term administration [7]: confirm the safety
